From paper PMC6946680, “Modulation of brain cation-Cl^− cotransport via the SPAK kinase inhibitor ZT-1a” (Nature Communications, 2020)
Where “and” joins values, the source holds several entries; their conditions need not be identical. Identical values can stand only once.

Legend:
[1] = Immunoblot of KCC site 1 phosphorylation (KCC3 Thr991) in HEK-293 cells transfected with FLAG-KCC3; format: cell-based, human
SPAK phosphorylation [2] = assay: Pharmacodynamic study, SPAK phosphorylation in kidney of naive mice; format: in vivo, mouse; conditions: Fig S8b (kidney)
Description: (§1) To define ZT-1a efficacy in naive mice in vivo, we examined phosphorylation of SPAK, NKCC1, and NCC in kidney, and phosphorylation of SPAK, NKCC1, and KCC3 in brain, after intraperitoneal (i.p.) administration of either ZT-1a (10, 30, 50, and 100 mg/kg) or Closantel (50 mg/kg as a reference). […]
(§2) 5. Pharmacodynamic (PD) study
(§3) Male C57BL/6j wild-type mice (6 weeks old, Charles River Laboratories Edinburgh UK) were treated with ZT-1a (in DMSO, Sigma) by subcutaneous injection at doses of 0, 3, 10, 30, 50 and 100 mg/kg. 50 mg/kg Closantel was administered as a comparative control. Vehicle control mice were treated with an equal volume of DMSO solution. One hour after administration, mice were sacrificed by cervical dislocation, and kidney and brain tissues were rapidly dissected and snap-frozen in liquid nitrogen. Age- […]
(§4) free conditions at the University of Dundee (UK) as described in our recent study1. Animal experiments and breeding were approved by the University of Dundee ethical committee and performed under a […]
(§5) Policy on the Care, Welfare and Treatment of Animals, and regulations set by the University of Dundee and the U.K. Home Office. […]
(§6) Brain and kidney tissues were collected at 60 min post injection, and proteins subjected to immunoblot were probed with antibodies specific for phosphorylated forms of SPAK,

NKCC1 pThr203/207/212 [3] = assay: Pharmacodynamic study, NKCC1 phosphorylation in brain of naive mice; format: in vivo, mouse; conditions: for pTh203.207.212 / NKCC1: Fig S8a (brain)
Description: as §1, §2, §3, §4, §5, §6

SPAK pSer373 = assay: Immunoblot of SPAK/OSR1 p-Ser373/Ser325 in HEK-293 cells; format: cell-based, human; conditions: for pSPAK/SPAK band intensity ratio: single replicates
NKCC1 pThr203/207/212 [4] = assay: Pharmacodynamic study, NKCC1 phosphorylation in kidney of naive mice; format: in vivo, mouse; conditions: Fig S8b (kidney)
Description: as §1, §2, §3, §4, §5, §6

C57BL/6J mice = assay: Kaplan-Meier survival of naive and ischemic stroke mice at 25 mg/kg; format: in vivo, mouse
Description: We compared the neuroprotective efficacy of Closantel with that of the pan-WNK-kinase inhibitor WNK463. […] Moreover, toxicity of Closantel and ZT-1a at 25 mg/kg in naive and ischemic stroke mice was reflected in Kaplan–Meier survival curves (Supplementary Fig. 12).
Supplemental Fig. 12 Kaplan-Meier survival curve of naïve and ischemic stroke mice treated with […]
Normal naïve C57BL/6J mice, or mice after tMCAO randomly received Closantel or ZT-1a treatment […]
was monitored for 0-7 days post-treatment. No mortality was detected in the naïve mice treated with Closantel or ZT-1a. However, all ischemic stroke mice treated with Closantel died within 2 days, with a […]
median survival of 1 day. […]
days). n = 3 per group (naïve+Closantel or naive+ZT-1a), n = 6 per group (tMCAO+vehicle or tMCAO+Closantel or tMCAO+ZT-1a), *p < 0.05, Log-rank test.

KCC3 pThr1048 [5] = assay: Immunoblot of KCC site 2 phosphorylation (KCC3 Thr1048) in HEK-293 cells transfected with FLAG-KCC3; format: cell-based, human; conditions: for T1007/KCC2 band intensity ratio: single replicates
[6] = molecular target: human SPAK 452-547(C-term) with WNK peptide (RFQV) (Homo sapiens, UniProt Q9UEW8); assay: Fluorescence polarization of SPAK–WNK peptide interaction; format: binding; conditions: for Inhibitor vs SPAK FL (fluorescence polarization signal): Fig S5b
[7] = tested on: mouse model of ischemic stroke (tMCAO); assay: Infarct volume and hemispheric swelling (TTC) 24 h after tMCAO; format: in vivo
KCC3 pThr1048 [8] = assay: Pharmacodynamic study, KCC3 phosphorylation in brain of naive mice; format: in vivo, mouse; conditions: for pTh1048 / KCC3: Fig S8a (brain)
Description: as §1, §2, §3, §4, §5, §6

SPAK phosphorylation [9] = assay: Pharmacodynamic study, SPAK phosphorylation in brain of naive mice; format: in vivo, mouse; conditions: Fig S8a (brain)
Description: as §1, §2, §3, §4, §5, §6

## Cc1cc(C(C#N)c2ccc(Cl)cc2)c(Cl)cc1NC(=O)c1cc(Cl)ccc1O (stereo not drawn) [ZT-1a, 5-chloro-N-(5-chloro-4-((4-chlorophenyl)(cyano)methyl)-2-methylphenyl)-2-hydroxybenzamide]
[1]; Hypotonic low Cl, 1 uM, single replicates
  T906/KCC2 band intensity ratio: 0.214 and 0.239 and 0.189 and 0.203
[1]; Hypotonic low Cl, 3 uM, single replicates
  T906/KCC2 band intensity ratio: 0.058 and 0.074 and 0.03 and 0.063
[1]; Hypotonic low Cl, 10 uM, single replicates
  T906/KCC2 band intensity ratio: 0.03 and 0.034 and 0.02 and 0.026
[1]; Isotonic control, 1 uM, single replicates (Fig 2 source data)
  T906/KCC2 band intensity ratio: 0.356 and 0.264 and 0.316 and 0.279
[1]; Isotonic control, 3 uM, single replicates
  T906/KCC2 band intensity ratio: 0.166 and 0.176 and 0.153 and 0.142
[1]; Isotonic control, 10 uM, single replicates
  T906/KCC2 band intensity ratio: 0.065 and 0.041 and 0.054 and 0.049
SPAK phosphorylation [2]; 10 mg/kg
  pSer373 / SPAK: 0.9 and 1.08 and 0.92 and 0.99
SPAK phosphorylation [2]; 30 mg/kg
  pSer373 / SPAK: 0.85 and 0.8 and 0.86 and 0.76
SPAK phosphorylation [2]; 50 mg/kg
  pSer373 / SPAK: 0.56 and 0.45 and 0.51 and 0.41
SPAK phosphorylation [2]; 100 mg/kg
  pSer373 / SPAK: 0.37 and 0.44 and 0.38 and 0.4
NKCC1 pThr203/207/212 [3]; 60 min after administration
  NKCC1 phosphorylation (pThr203/207/212) in naive brains: neither drug had reduced
NKCC1 pThr203/207/212 [3]; 10 mg/kg
  pTh203.207.212 / NKCC1: 0.75 and 0.66 and 0.74 and 0.69
NKCC1 pThr203/207/212 [3]; 30 mg/kg
  pTh203.207.212 / NKCC1: 0.62 and 0.59 and 0.64 and 0.61
NKCC1 pThr203/207/212 [3]; 50 mg/kg
  pTh203.207.212 / NKCC1: 0.66 and 0.75 and 0.63 and 0.69
NKCC1 pThr203/207/212 [3]; 100 mg/kg
  pTh203.207.212 / NKCC1: 0.61 and 0.67 and 0.74 and 0.58
SPAK pSer373; Hypotonic low Cl, 1 uM
  pSPAK/SPAK band intensity ratio: 0.189 and 0.226 and 0.157 and 0.173
SPAK pSer373; Hypotonic low Cl, 3 uM
  pSPAK/SPAK band intensity ratio: 0.081 and 0.093 and 0.086 and 0.0963
SPAK pSer373; Hypotonic low Cl, 10 uM
  pSPAK/SPAK band intensity ratio: 0.038 and 0.034 and 0.031 and 0.043
SPAK pSer373; Isotonic control, 1 uM
  pSPAK/SPAK band intensity ratio: 0.113 and 0.123 and 0.106 and 0.12
SPAK pSer373; Isotonic control, 3 uM
  pSPAK/SPAK band intensity ratio: 0.067 and 0.051 and 0.053 and 0.059
SPAK pSer373; Isotonic control, 10 uM
  pSPAK/SPAK band intensity ratio: 0.031 and 0.034 and 0.024 and 0.028
SPAK pSer373; ~3–10 µM ZT-1a, n = 3
  inhibition of SPAK phosphorylation at Ser373: 70 ± 3.8%
NKCC1 pThr203/207/212 [4]; 10 mg/kg
  pTh203.207.212 / NKCC1: 1.13 and 1.26 and 1.54 and 1.32
NKCC1 pThr203/207/212 [4]; 30 mg/kg
  pTh203.207.212 / NKCC1: 1.14 and 0.89 and 0.64 and 0.77
NKCC1 pThr203/207/212 [4]; 100 mg/kg
  pTh203.207.212 / NKCC1: 0.41 and 0.27 and 0.44 and 0.32
C57BL/6J mice; 25 mg/kg i.p., 0-7 days, n = 3
  mortality in naive mice: No mortality
C57BL/6J mice; 25 mg/kg i.p., Kaplan–Meier, n = 6
  survival of ischemic stroke mice: survived longer than Closantel-treated mice
C57BL/6J mice; C57BL/6J, mouse, in vivo
  median survival of ischemic stroke mice: 4 days
KCC3 pThr1048 [5]; Hypotonic low Cl, 1 uM
  T1007/KCC2 band intensity ratio: 0.223 and 0.282 and 0.213 and 0.243
KCC3 pThr1048 [5]; Hypotonic low Cl, 3 uM
  T1007/KCC2 band intensity ratio: 0.041 and 0.093 and 0.036 and 0.063
KCC3 pThr1048 [5]; Hypotonic low Cl, 10 uM
  T1007/KCC2 band intensity ratio: 0.027 and 0.033 and 0.023 and 0.03
KCC3 pThr1048 [5]; Isotonic control, 1 uM
  T1007/KCC2 band intensity ratio: 0.174 and 0.099 and 0.126 and 0.132
KCC3 pThr1048 [5]; Isotonic control, 3 uM
  T1007/KCC2 band intensity ratio: 0.134 and 0.118 and 0.103 and 0.121
KCC3 pThr1048 [5]; Isotonic control, 10 uM
  T1007/KCC2 band intensity ratio: 0.09 and 0.069 and 0.044 and 0.053
KCC3 pThr1048 [5]; ZT-1a 1 uM, Fig S4b
  KCC3 pThr1048 / KCC3: 0.35 and 0.401 and 0.302 and 0.261
[6]; 10 nM Lumino-Green WNK peptide, read-out: IC50, decrease in fluorescence polarization (SPAK–WNK peptide)
  IC50: 325 µM
[6]; Inhibitor 1e-5 μM
  Inhibitor vs SPAK FL (fluorescence polarization signal): 140.3 and 136 and 147.2
[6]; Inhibitor 0.0001 μM
  Inhibitor vs SPAK FL (fluorescence polarization signal): 142.6 and 130.1 and 143.7
[6]; Inhibitor 0.001 μM
  Inhibitor vs SPAK FL (fluorescence polarization signal): 141.9 and 135.2 and 145.3
[6]; Inhibitor 0.003 μM
  Inhibitor vs SPAK FL (fluorescence polarization signal): 148.6 and 138.3 and 144.2
[6]; Inhibitor 0.01 μM
  Inhibitor vs SPAK FL (fluorescence polarization signal): 150.4 and 140.8 and 146.2
[6]; Inhibitor 0.03 μM
  Inhibitor vs SPAK FL (fluorescence polarization signal): 151.3 and 139.2 and 146.8
[6]; Inhibitor 0.1 μM
  Inhibitor vs SPAK FL (fluorescence polarization signal): 152.2 and 141.6 and 147.3
[6]; Inhibitor 0.3 μM
  Inhibitor vs SPAK FL (fluorescence polarization signal): 151.7 and 143.1 and 150.3
[6]; Inhibitor 1 μM
  Inhibitor vs SPAK FL (fluorescence polarization signal): 154.3 and 140.8 and 151.4
[6]; Inhibitor 3 μM
  Inhibitor vs SPAK FL (fluorescence polarization signal): 149 and 139.7 and 147.8
[6]; Inhibitor 10 μM
  Inhibitor vs SPAK FL (fluorescence polarization signal): 149.9 and 139.1 and 147.3
[6]; Inhibitor 100 μM
  Inhibitor vs SPAK FL (fluorescence polarization signal): 127.1 and 121.5 and 130.6
[7]; ZT-1a 2.5 or 5 mg/kg, vs vehicle control
  reduction of cerebral hemispheric swelling: 36–54%
[7]; ZT-1a from 3 h post reperfusion, 24 h post tMCAO, n = 12
  infarct volume: 43.6 ± 6.5 mm^3
[7]; ZT-1a from 3 h post reperfusion, 24 h post tMCAO, vs vehicle, n = 12
  decrease of infarct volume: ~ 44%
KCC3 pThr1048 [8]; 60 min after administration
  KCC3 phosphorylation (pThr1048) in naive brains: neither drug had reduced
KCC3 pThr1048 [8]; 10 mg/kg
  pTh1048 / KCC3: 1.01 and 0.99 and 1 and 0.95
KCC3 pThr1048 [8]; 30 mg/kg
  pTh1048 / KCC3: 1.05 and 0.97 and 0.9 and 0.96
KCC3 pThr1048 [8]; 50 mg/kg
  pTh1048 / KCC3: 0.87 and 0.92 and 1.06 and 0.97
KCC3 pThr1048 [8]; 100 mg/kg
  pTh1048 / KCC3: 0.94 and 0.87 and 0.99 and 0.9
SPAK phosphorylation [9]; 10 mg/kg
  pSer373 / SPAK: 0.64 and 0.68 and 0.52 and 0.61
SPAK phosphorylation [9]; 30 mg/kg
  pSer373 / SPAK: 0.55 and 0.6 and 0.56 and 0.52
SPAK phosphorylation [9]; 50 mg/kg
  pSer373 / SPAK: 0.56 and 0.65 and 0.61 and 0.53
SPAK phosphorylation [9]; 100 mg/kg
  pSer373 / SPAK: 0.67 and 0.54 and 0.58 and 0.5
